Patent US20260262643A1, “HERBICIDAL BENZOXAZINES” (FMC CORPORATION, priority 2022, published 2026)

Assays:
foxtail, giant [1] = test: Test A preemergence; type: in vivo, Setaria faberi
How it was run: (§1)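 Visual injury ratings on a 0–100 scale (100 = complete control) versus untreated controls, taken 10 days after treatment in greenhouse. Preemergence: directed soil spray onto seeded loam/sand. Postemergence: foliar application at one- to two-leaf stage, plants 2–10 cm. Formulation: non-phytotoxic solvent plus surfactant.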

sedge, umbrella = test: Test B flooded paddy test; type: in vivo, Cyperus difformis; conditions: 250 g ai/ha, Flood, 13 days, 0 to 100 scale (0 no effect, 100 complete control)
How it was run: (§2)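 Each species was raised to the 2-leaf stage. At treatment, each pot received floodwater 3 cm deep, with the chemical delivered into the water. Greenhouse holding followed for 13 days, then percent control was estimated visually versus untreated pots.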

foxtail, giant [2] = test: Test A postemergence; type: in vivo, Setaria faberi
How it was run: as §1

barnyardgrass = test: Test B flooded paddy test; type: in vivo, Echinochloa crus-galli; conditions: 250 g ai/ha, Flood, 13 days, 0 to 100 scale (0 no effect, 100 complete control)
How it was run: as §2

goosegrass [3] = test: Test A postemergence; type: in vivo, Eleusine indica
How it was run: as §1

ryegrass, Italian [4] = test: Test A preemergence; type: in vivo, Lolium multiflorum
How it was run: as §1

ryegrass, Italian [5] = test: Test A postemergence; type: in vivo, Lolium multiflorum
How it was run: as §1

rice = test: Test B flooded paddy test; type: in vivo, Oryza sativa; conditions: 250 g ai/ha, Flood, 13 days, 0 to 100 scale (0 no effect, 100 complete control)
How it was run: as §2

oat, wild [6] = test: Test A preemergence; type: in vivo, Avena fatua
How it was run: as §1

kochia [7] = test: Test A postemergence; type: in vivo, Bassia scoparia
How it was run: as §1

wheat [8] = test: Test A postemergence; type: in vivo, Triticum aestivum
How it was run: as §1

ducksalad = test: Test B flooded paddy test; type: in vivo, Heteranthera limosa; conditions: 250 g ai/ha, Flood, 13 days, 0 to 100 scale (0 no effect, 100 complete control)
How it was run: as §2

ragweed [9] = test: Test A preemergence; type: in vivo, Ambrosia artemisiifolia
How it was run: as §1

soybean [10] = test: Test A postemergence; type: in vivo, Glycine max
How it was run: as §1

pigweed, palmer [11] = test: Test A postemergence; type: in vivo, Amaranthus palmeri
How it was run: as §1

soybean [12] = test: Test A preemergence; type: in vivo, Glycine max
How it was run: as §1

kochia [13] = test: Test A preemergence; type: in vivo, Bassia scoparia
How it was run: as §1

blackgrass [14] = test: Test A postemergence; type: in vivo, Alopecurus myosuroides
How it was run: as §1

blackgrass [15] = test: Test A preemergence; type: in vivo, Alopecurus myosuroides
How it was run: as §1

ragweed [16] = test: Test A postemergence; type: in vivo, Ambrosia artemisiifolia
How it was run: as §1

goosegrass [17] = test: Test A preemergence; type: in vivo, Eleusine indica
How it was run: as §1

wheat [18] = test: Test A preemergence; type: in vivo, Triticum aestivum
How it was run: as §1

oat, wild [19] = test: Test A postemergence; type: in vivo, Avena fatua
How it was run: as §1

corn [20] = test: Test A preemergence; type: in vivo, Zea mays
How it was run: as §1

galium = test: Test A postemergence; type: in vivo, Galium aparine
How it was run: as §1

corn [21] = test: Test A postemergence; type: in vivo, Zea mays
How it was run: as §1

pigweed, palmer [22] = test: Test A preemergence; type: in vivo, Amaranthus palmeri
How it was run: as §1

[23] = 125 g ai/ha, visual injury after 10 days, 0 to 100 scale, 0 is no effect, 100 is complete control
[24] = 500 g ai/ha, 0 to 100 scale (0 no effect, 100 complete control), 10 days
[25] = 125 g ai/ha, postemergence, 10 days, visual injury, 0 to 100 scale (0 no effect, 100 complete control)
[26] = 500 g ai/ha, Postemergence, 0 to 100 scale

CC1CN(C(=O)c2cccc(-n3cncn3)c2)c2cc(F)cc(F)c2O1 (stereo not shown) [Compound 45]
Plant response rating, Foxtail, Giant (foxtail, giant [1]; [23]): 70 | Plant response rating, Foxtail, Giant (foxtail, giant [1]; [24]): 100 | Plant response rating, Sedge, Umbrella (sedge, umbrella): 0 | Plant response rating, Foxtail, Giant (foxtail, giant [2]; [25]): 20 | Plant response rating, Foxtail, Giant (foxtail, giant [2]; [26]): 90 | Plant response rating, Barnyardgrass (barnyardgrass): 0 | Plant response rating, Goosegrass (goosegrass [3]; [25]): 0 | Plant response rating, Goosegrass (goosegrass [3]; [26]): 60 | Plant response rating, Ryegrass, Italian (ryegrass, Italian [4]; [23]): 70 | Plant response rating, Ryegrass, Italian (ryegrass, Italian [4]; [24]): 90 | Plant response rating, Ryegrass, Italian (ryegrass, Italian [5]; [25]): 50 | Plant response rating, Ryegrass, Italian (ryegrass, Italian [5]; [26]): 80 | Plant response rating, Rice (rice): 0 | Plant response rating, Oat, Wild (oat, wild [6]; [23]): 0 | Plant response rating, Oat, Wild (oat, wild [6]; [24]): 80 | Plant response rating, Kochia (kochia [7]; [25]): 10 | Plant response rating, Kochia (kochia [7]; [26]): 80 | Plant response rating, Wheat (wheat [8]; [25]): 10 | Plant response rating, Wheat (wheat [8]; [26]): 40 | Plant response rating, Ducksalad (ducksalad): 0 | Plant response rating, Ragweed (ragweed [9]; [23]): 0 | Plant response rating, Ragweed (ragweed [9]; [24]): 0 | Plant response rating, Soybean (soybean [10]; [25]): 100 | Plant response rating, Soybean (soybean [10]; [26]): 100 | Plant response rating, Pigweed, Palmer (pigweed, palmer [11]; [25]): 30 | Plant response rating, Pigweed, Palmer (pigweed, palmer [11]; [26]): 10 | Plant response rating, Soybean (soybean [12]; [23]): 20 | Plant response rating, Soybean (soybean [12]; [24]): 90 | Plant response rating, Kochia (kochia [13]; [23]): 0 | Plant response rating, Kochia (kochia [13]; [24]): 20 | Plant response rating, Blackgrass (blackgrass [14]; [25]): 30 | Plant response rating, Blackgrass (blackgrass [14]; [26]): 60 | Plant response rating, Blackgrass (blackgrass [15]; [23]): 50 | Plant response rating, Blackgrass (blackgrass [15]; [24]): 80 | Plant response rating, Ragweed (ragweed [16]; [25]): 0 | Plant response rating, Ragweed (ragweed [16]; [26]): 30 | Plant response rating, Goosegrass (goosegrass [17]; [23]): 70 | Plant response rating, Goosegrass (goosegrass [17]; [24]): 100 | Plant response rating, Wheat (wheat [18]; [23]): 0 | Plant response rating, Wheat (wheat [18]; [24]): 60 | Plant response rating, Oat, Wild (oat, wild [19]; [25]): 0 | Plant response rating, Oat, Wild (oat, wild [19]; [26]): 20 | Plant response rating, Corn (corn [20]; [23]): 0 | Plant response rating, Corn (corn [20]; [24]): 20 | Plant response rating, Galium (galium; [25]): 80 | Plant response rating, Galium (galium; [26]): 90 | Plant response rating, Corn (corn [21]; [25]): 10 | Plant response rating, Corn (corn [21]; [26]): 20 | Plant response rating, Pigweed, Palmer (pigweed, palmer [22]; [23]): 30 | Plant response rating, Pigweed, Palmer (pigweed, palmer [22]; [24]): 70

CC1CN(C(=O)c2cccc(-n3cncn3)c2)c2cccc(C3CC3)c2O1 (stereo not shown) [Compound 42]
Plant response rating, Foxtail, Giant (foxtail, giant [1]; [23]): 10 | Plant response rating, Foxtail, Giant (foxtail, giant [1]; [24]): 90 | Plant response rating, Sedge, Umbrella (sedge, umbrella): 0 | Plant response rating, Foxtail, Giant (foxtail, giant [2]; [25]): 20 | Plant response rating, Foxtail, Giant (foxtail, giant [2]; [26]): 70 | Plant response rating, Barnyardgrass (barnyardgrass): 0 | Plant response rating, Goosegrass (goosegrass [3]; [25]): 20 | Plant response rating, Goosegrass (goosegrass [3]; [26]): 30 | Plant response rating, Ryegrass, Italian (ryegrass, Italian [4]; [23]): 50 | Plant response rating, Ryegrass, Italian (ryegrass, Italian [4]; [24]): 100 | Plant response rating, Ryegrass, Italian (ryegrass, Italian [5]; [25]): 0 | Plant response rating, Ryegrass, Italian (ryegrass, Italian [5]; [26]): 50 | Plant response rating, Rice (rice): 0 | Plant response rating, Oat, Wild (oat, wild [6]; [23]): 0 | Plant response rating, Oat, Wild (oat, wild [6]; [24]): 50 | Plant response rating, Kochia (kochia [7]; [25]): 0 | Plant response rating, Kochia (kochia [7]; [26]): 80 | Plant response rating, Wheat (wheat [8]; [25]): 0 | Plant response rating, Wheat (wheat [8]; [26]): 20 | Plant response rating, Ducksalad (ducksalad): 0 | Plant response rating, Ragweed (ragweed [9]; [23]): 0 | Plant response rating, Ragweed (ragweed [9]; [24]): 0 | Plant response rating, Soybean (soybean [10]; [25]): 70 | Plant response rating, Soybean (soybean [10]; [26]): 90 | Plant response rating, Pigweed, Palmer (pigweed, palmer [11]; [25]): 30 | Plant response rating, Pigweed, Palmer (pigweed, palmer [11]; [26]): 10 | Plant response rating, Soybean (soybean [12]; [23]): 0 | Plant response rating, Soybean (soybean [12]; [24]): 0 | Plant response rating, Kochia (kochia [13]; [23]): 0 | Plant response rating, Kochia (kochia [13]; [24]): 20 | Plant response rating, Blackgrass (blackgrass [14]; [25]): 0 | Plant response rating, Blackgrass (blackgrass [14]; [26]): 40 | Plant response rating, Blackgrass (blackgrass [15]; [23]): 30 | Plant response rating, Blackgrass (blackgrass [15]; [24]): 60 | Plant response rating, Ragweed (ragweed [16]; [25]): 0 | Plant response rating, Ragweed (ragweed [16]; [26]): 0 | Plant response rating, Goosegrass (goosegrass [17]; [23]): 30 | Plant response rating, Goosegrass (goosegrass [17]; [24]): 90 | Plant response rating, Wheat (wheat [18]; [23]): 0 | Plant response rating, Wheat (wheat [18]; [24]): 20 | Plant response rating, Oat, Wild (oat, wild [19]; [25]): 0 | Plant response rating, Oat, Wild (oat, wild [19]; [26]): 10 | Plant response rating, Corn (corn [20]; [23]): 0 | Plant response rating, Corn (corn [20]; [24]): 0 | Plant response rating, Galium (galium; [25]): 50 | Plant response rating, Galium (galium; [26]): 70 | Plant response rating, Corn (corn [21]; [25]): 10 | Plant response rating, Corn (corn [21]; [26]): 40 | Plant response rating, Pigweed, Palmer (pigweed, palmer [22]; [23]): 10 | Plant response rating, Pigweed, Palmer (pigweed, palmer [22]; [24]): 80
